# In patent US10538555B2, “Macrocyclic inhibitors of the PD-1/PD-L1 and CD80(B7-1)/PD-L1 protein/protein interactions” (BRISTOL-MYERS SQUIBB COMPANY, priority 2014, dated 2020):
# Where a SMILES comes first, the peptide text is derived from it. Bridges are numbered along the chain shown (N, C = ends). [ ]: non-standard residue; d: D form. ξ: configuration not given here. Trp(1-CH2COOH) = N[C@@H](Cc1cn(CC(=O)O)c2ccccc12)C(=O)O; Phe(3,4,5-F3) = N[C@@H](Cc1cc(F)c(F)c(F)c1)C(=O)O; Phe(3,4-F2) = N[C@@H](Cc1ccc(F)c(F)c1)C(=O)O; ξTrp(7-aza) = NC(Cc1c[nH]c2ncccc12)C(=O)O; Phe(4-F) = N[C@@H](Cc1ccc(F)cc1)C(=O)O; d(cisHyp) = O=C(O)[C@H]1C[C@@H](O)CN1; Bta = N[C@@H](Cc1csc2ccccc12)C(=O)O; Hyp = O=C(O)[C@@H]1C[C@@H](O)CN1; NMeF = CN[C@@H](Cc1ccccc1)C(=O)O; dNMeF = CN[C@H](Cc1ccccc1)C(=O)O; NMeNle = CCCC[C@H](NC)C(=O)O; Pip = O=C(O)[C@@H]1CCCCN1; dPip = O=C(O)[C@H]1CCCCN1; hSer = N[C@@H](CCO)C(=O)O; NMeA = CN[C@@H](C)C(=O)O; Orn = NCCC[C@H](N)C(=O)O; dThz = O=C(O)[C@H]1CSCN1; Dab = NCC[C@H](N)C(=O)O; Dap = NC[C@H](N)C(=O)O; ξC = NC(CS)C(=O)O; Sar = CNCC(=O)O
# Target: T1, Human PD-L1/PD-1 (Homo sapiens, UniProt Q9NZQ7)
# T1 construct: TVMV protease cleavage site (C); made in house; host or cells: HEK293T cells
# Assay: HTRF Human PD-L1/PD-1 binding assay (PD-1-Ig/PD-L1-His)
# Conditions: PD-L1-His 10 nM, PD-1-Ig 20 nM; class symbol; read-out: HTRF Human PD-L1/PD-1 Binding Assay IC50 Range
# Procedure, shortened: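 Step 1: compound with PD-L1-His (10 nM final), 15 min. Step 2: PD-1-Ig (20 nM final), 15 min. Step 3: Eu-cryptate anti-Ig (1 nM) plus APC anti-His (20 nM), 30 min equilibration. Signal taken as 665 nm/620 nm ratio.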
# T1 sequence (Q9NZQ7 with tags, fused parts or gaps): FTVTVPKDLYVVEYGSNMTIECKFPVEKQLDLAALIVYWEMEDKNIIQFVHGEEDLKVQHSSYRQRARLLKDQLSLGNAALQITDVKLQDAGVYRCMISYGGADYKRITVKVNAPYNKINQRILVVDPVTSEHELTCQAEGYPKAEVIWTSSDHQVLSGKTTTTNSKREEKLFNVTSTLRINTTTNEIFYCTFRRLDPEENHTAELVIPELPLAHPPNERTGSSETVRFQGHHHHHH
row,SMILES,IC50
1,CCCC[C@H]1C(=O)N[C@@H](CC(N)=O)C(=O)N2CCC[C@H]2C(=O)N[C@@H](CO)C(=O)N[C@@H](CCO)C(=O)N2CCC[C@H]2C(=O)N[C@@H](Cc2c[nH]c3ccccc23)C(=O)N[C@@H](CO)C(=O)N[C@@H](Cc2c[nH]c3ccccc23)C(=O)N(C)[C@@H](C)C(=O)N(C)[C@@H](C)C(=O)N[C@@H](CCCN)C(=O)NC(C(=O)NCC(N)=O)CSCC(=O)N[C@@H](Cc2ccc(O)cc2)C(=O)N1C (stereo partly drawn) [Example 10210] ({CH2CO}-Y[NMeNle]NPS[hSer]PWSW[NMeA][NMeA][Orn][ξC]G-NH2; thioether N-14),1000 to 10000 nM
2,"CCCC[C@H]1C(=O)N2C[C@H](O)C[C@@H]2C(=O)N[C@@H](CC(=O)O)C(=O)N[C@@H](C(C)C)C(=O)N(C)[C@@H](Cc2ccccc2)C(=O)N[C@@H](CCC(=O)O)C(=O)N2C[C@H](O)C[C@@H]2C(=O)N[C@@H](Cc2c[nH]c3ccccc23)C(=O)N[C@@H](Cc2ccc(O)cc2)C(=O)N[C@@H](CN)C(=O)N[C@H](C(=O)NCC(N)=O)CSCC(=O)N[C@@H](Cc2cc(F)c(F)c(F)c2)C(=O)N(C)[C@@H](Cc2ccccc2)C(=O)N1C [Example 9334] ({CH2CO}-[Phe(3,4,5-F3)][NMeF][NMeNle][d(cisHyp)]DV[NMeF]E[d(cisHyp)]WY[Dap]CG-NH2; thioether N-13)",10 to 99.9 nM
3,CCCC[C@H]1C(=O)N[C@@H](CCC(N)=O)C(=O)N2CCCC[C@@H]2C(=O)N[C@@H](Cc2c[nH]c3ccccc23)C(=O)N[C@@H](Cc2ccc(O)cc2)C(=O)N[C@@H](CC(C)C)C(=O)N[C@H](C(=O)NCC(N)=O)CSCC(=O)N[C@@H](Cc2ccc(F)cc2)C(=O)N(C)[C@@H](Cc2ccccc2)C(=O)N(C)[C@@H](CCCC)C(=O)N2CCC[C@@H]2C(=O)N[C@@H](CC(=O)O)C(=O)N[C@@H](C(C)C)C(=O)N1C [Example 9216] ({CH2CO}-[Phe(4-F)][NMeF][NMeNle][dP]DV[NMeNle]Q[dPip]WYLCG-NH2; thioether N-13),10 to 99.9 nM
4,CCCC[C@H]1C(=O)N2CSC[C@@H]2C(=O)N[C@@H](CC(=O)O)C(=O)N[C@@H](C)C(=O)N(C)[C@@H](Cc2ccccc2)C(=O)N[C@@H](Cc2ccc(O)cc2)C(=O)N(C)CC(=O)N[C@@H](Cc2c[nH]c3ccccc23)C(=O)N[C@@H](Cc2ccc(O)cc2)C(=O)N[C@@H](CC(C)C)C(=O)N[C@H](C(=O)NCC(N)=O)CSCC(=O)N[C@@H](Cc2ccccc2)C(=O)N(C)[C@@H](Cc2ccccc2)C(=O)N1C [Example 10085] ({CH2CO}-F[NMeF][NMeNle][dThz]DA[NMeF]Y[Sar]WYLCG-NH2; thioether N-13),100 to 990 nM
5,CCCC[C@H]1C(=O)N(C)[C@@H](CCCC)C(=O)N[C@@H](CCC(=O)O)C(=O)N[C@H](C(=O)NCC(N)=O)CSCC(=O)N[C@@H](Cc2ccc(OC)cc2)C(=O)N(C)[C@@H](C)C(=O)N[C@@H](CC(=O)O)C(=O)N2CCC[C@H]2C(=O)N[C@@H](Cc2cnc[nH]2)C(=O)N[C@@H](CCC(=O)O)C(=O)N2C[C@H](O)C[C@H]2C(=O)N[C@@H](Cc2c[nH]c3ccccc23)C(=O)N[C@@H](CC(=O)O)C(=O)N[C@@H](Cc2c[nH]c3ccccc23)C(=O)N1C [Example 7125] ({CH2CO}-Y(Me)[NMeA]DPHE[Hyp]WDW[NMeNle][NMeNle]ECG-NH2; thioether N-14),10 to 99.9 nM
6,CCCC[C@H]1C(=O)N(C)[C@@H](CCCC)C(=O)N[C@@H](C)C(=O)N[C@H](C(=O)NCC(N)=O)CSCC(=O)N[C@@H](Cc2ccc(O)cc2)C(=O)N(C)[C@@H](C)C(=O)N[C@@H](CC(N)=O)C(=O)N2CCC[C@H]2C(=O)N[C@@H](CN)C(=O)N[C@@H](CC(C)C)C(=O)N2C[C@H](O)C[C@H]2C(=O)N[C@@H](Cc2c[nH]c3ccccc23)C(=O)N[C@@H](CCN)C(=O)N[C@@H](Cc2cn(CC(=O)O)c3ccccc23)C(=O)N1C [Example 5166] ({CH2CO}-Y[NMeA]NP[Dap]L[Hyp]W[Dab][Trp(1-CH2COOH)][NMeNle][NMeNle]ACG-NH2; thioether N-14),10 to 99.9 nM
7,CCCC[C@H]1C(=O)N(C)[C@@H](CCCC)C(=O)N[C@@H](CCC(=O)O)C(=O)N[C@H](C(=O)NCC(N)=O)CSCC(=O)N[C@@H](Cc2ccc(O)cc2)C(=O)N(C)[C@@H](C)C(=O)N[C@@H](CC(N)=O)C(=O)N2CCC[C@H]2C(=O)N[C@@H](CN)C(=O)N[C@@H](CC(C)C)C(=O)N2C[C@H](O)C[C@H]2C(=O)N[C@@H](Cc2c[nH]c3ccccc23)C(=O)N[C@@H](CO)C(=O)N[C@@H](Cc2cn(CC(=O)O)c3ccccc23)C(=O)N1C [Example 6137] ({CH2CO}-Y[NMeA]NP[Dap]L[Hyp]WS[Trp(1-CH2COOH)][NMeNle][NMeNle]ECG-NH2; thioether N-14),10 to 99.9 nM
8,CCCC[C@H]1C(=O)N(C)[C@@H](CCCC)C(=O)N[C@@H](CCC(=O)O)C(=O)N[C@H](C(=O)NCC(N)=O)CSCC(=O)N[C@@H](Cc2ccc(O)cc2)C(=O)N2CCCC[C@H]2C(=O)N[C@@H](CC(=O)O)C(=O)N2CCC[C@H]2C(=O)N[C@@H](Cc2cnc[nH]2)C(=O)N[C@@H](CCC(=O)O)C(=O)N2C[C@H](O)C[C@H]2C(=O)N[C@@H](Cc2c[nH]c3ccccc23)C(=O)N[C@@H](CO)C(=O)N[C@@H](Cc2csc3ccccc23)C(=O)N1C [Example 1512] ({CH2CO}-Y[Pip]DPHE[Hyp]WS[Bta][NMeNle][NMeNle]ECG-NH2; thioether N-14),10 to 99.9 nM

# The remaining lines, values ahead:
row,IC50,SMILES
1,1 to 9.9 nM,CCCC[C@H]1C(=O)N(C)[C@@H](CCCC)C(=O)N[C@@H](CCC(=O)O)C(=O)N[C@H](C(=O)NCC(N)=O)CSCC(=O)N[C@@H](Cc2ccc(O)cc2)C(=O)N(C)[C@@H](C)C(=O)N[C@@H](CC(N)=O)C(=O)N2CCC[C@H]2C(=O)N[C@@H](CN)C(=O)N[C@@H](CC(C)C)C(=O)N2C[C@H](O)C[C@H]2C(=O)N[C@@H](Cc2c[nH]c3ccccc23)C(=O)N[C@@H](CCC(=O)O)C(=O)N[C@@H](Cc2c[nH]c3ccccc23)C(=O)N1C [Example 5232] ({CH2CO}-Y[NMeA]NP[Dap]L[Hyp]WEW[NMeNle][NMeNle]ECG-NH2; thioether N-14)
2,10 to 99.9 nM,CCCC[C@H]1C(=O)N(C)CC(=O)N[C@@H](CC(=O)O)C(=O)N[C@@H](C(C)C)C(=O)N(C)[C@@H](Cc2ccccc2)C(=O)N[C@@H](Cc2ccc(O)cc2)C(=O)N(C)CC(=O)NC(Cc2c[nH]c3ncccc23)C(=O)N[C@@H](Cc2ccc(O)cc2)C(=O)N[C@@H](CC(C)C)C(=O)N[C@H](C(=O)NCC(N)=O)CSCC(=O)N[C@@H](Cc2ccccc2)C(=O)N(C)[C@@H](Cc2ccccc2)C(=O)N1C (stereo partly drawn) [Example 3239] ({CH2CO}-F[NMeF][NMeNle][Sar]DV[NMeF]Y[Sar][ξTrp(7-aza)]YLCG-NH2; thioether N-13)
3,1 to 9.9 nM,CCCC[C@H]1C(=O)N(C)[C@@H](CCCC)C(=O)N[C@@H](CC(C)C)C(=O)N[C@H](C(=O)NCC(N)=O)CSCC(=O)N[C@@H](Cc2ccc(O)cc2)C(=O)N(C)[C@@H](C)C(=O)N[C@@H](CC(=O)O)C(=O)N2CCC[C@H]2C(=O)N[C@@H](CN)C(=O)N[C@@H](CCC(N)=O)C(=O)N2C[C@H](O)C[C@H]2C(=O)N[C@@H](Cc2c[nH]c3ccccc23)C(=O)N[C@@H](CCN)C(=O)N[C@@H](Cc2cn(CC(=O)O)c3ccccc23)C(=O)N1C [Example 5153] ({CH2CO}-Y[NMeA]DP[Dap]Q[Hyp]W[Dab][Trp(1-CH2COOH)][NMeNle][NMeNle]LCG-NH2; thioether N-14)
4,1 to 9.9 nM,CCCC[C@H]1C(=O)N(C)[C@@H](CCCC)C(=O)N[C@@H](CCC(=O)O)C(=O)N[C@H](C(=O)NCC(N)=O)CSCC(=O)N[C@@H](Cc2ccc(O)cc2)C(=O)N2CCCC[C@H]2C(=O)N[C@@H](CC(=O)O)C(=O)N2CCC[C@H]2C(=O)N[C@@H](CN)C(=O)N[C@@H](CCC(=O)O)C(=O)N2C[C@H](O)C[C@H]2C(=O)N[C@@H](Cc2c[nH]c3ccccc23)C(=O)N[C@@H](CCN)C(=O)N[C@@H](Cc2c[nH]c3ccccc23)C(=O)N1C [Example 1262] ({CH2CO}-Y[Pip]DP[Dap]E[Hyp]W[Dab]W[NMeNle][NMeNle]ECG-NH2; thioether N-14)
5,1 to 9.9 nM,CCCC[C@H]1C(=O)N(C)[C@@H](CCCC)C(=O)N[C@@H](CCC(=O)O)C(=O)N[C@H](C(=O)NCC(N)=O)CSCC(=O)N[C@@H](Cc2ccc(OC)cc2)C(=O)N(C)[C@@H](C)C(=O)N[C@@H](CC(=O)O)C(=O)N2CCC[C@H]2C(=O)N[C@@H](CN)C(=O)N[C@@H](CCC(=O)O)C(=O)N2C[C@H](O)C[C@H]2C(=O)N[C@@H](Cc2c[nH]c3ccccc23)C(=O)N[C@@H](CCN)C(=O)N[C@@H](Cc2c[nH]c3ccccc23)C(=O)N1C [Example 7113] ({CH2CO}-Y(Me)[NMeA]DP[Dap]E[Hyp]W[Dab]W[NMeNle][NMeNle]ECG-NH2; thioether N-14)
6,1 to 9.9 nM,"CCCC[C@H]1C(=O)N2C[C@H](O)C[C@@H]2C(=O)N[C@@H](CC(=O)O)C(=O)N[C@@H](C(C)C)C(=O)N(C)[C@H](Cc2ccccc2)C(=O)N[C@@H](CCCCN)C(=O)N2C[C@H](O)C[C@@H]2C(=O)N[C@@H](Cc2c[nH]c3ccccc23)C(=O)N[C@@H](Cc2ccc(O)cc2)C(=O)N[C@@H](CC(C)C)C(=O)N[C@H](C(=O)NCC(N)=O)CSCC(=O)N[C@@H](Cc2ccc(F)c(F)c2)C(=O)N(C)[C@@H](Cc2ccccc2)C(=O)N1C [Example 9295] ({CH2CO}-[Phe(3,4-F2)][NMeF][NMeNle][d(cisHyp)]DV[dNMeF]K[d(cisHyp)]WYLCG-NH2; thioether N-13)"
7,1 to 9.9 nM,CCCC[C@H]1C(=O)N(C)[C@@H](CCCC)C(=O)N[C@@H](CN)C(=O)N[C@H](C(=O)NCC(N)=O)CSCC(=O)N[C@@H](Cc2ccc(O)cc2)C(=O)N(C)[C@@H](C)C(=O)N[C@@H](CC(=O)O)C(=O)N2CCC[C@H]2C(=O)N[C@@H](Cc2c[nH]cn2)C(=O)N[C@@H](CCC(N)=O)C(=O)N2C[C@H](O)C[C@H]2C(=O)N[C@@H](Cc2c[nH]c3ccccc23)C(=O)N[C@@H](CO)C(=O)N[C@@H](Cc2cn(CC(=O)O)c3ccccc23)C(=O)N1C [Example 5163] ({CH2CO}-Y[NMeA]DPHQ[Hyp]WS[Trp(1-CH2COOH)][NMeNle][NMeNle][Dap]CG-NH2; thioether N-14)
